Values quoted from earlier work, collected in patent US9485971B2, “Fumarylacetoacetate hydrolase (Fah)-deficient pigs and uses thereof” (May Foundation for Medical Education and Research, priority 2010, dated 2016).

Test system: Fah-deficient mice

Which “phenotype at suboptimal doses of NTBC” value (Fah-/- mice, suboptimal doses) does the source give for `O=C1CCCC(=O)C1C(=O)c1ccc(C(F)(F)F)cc1[N+](=O)[O-]` [NTBC, 2-(2-nitro-4-trifluoro-methyl-benzoyl)-1,3 cyclohexanedione] here?
Its value is “develop HCC and fibrosis”.

And the “effect on liver function and neonatal lethality” value (Fah-deficient mice treated with NTBC)?
Its value is “restores liver function and abolishes neonatal lethality”.

And the “hepatocellular carcinoma penetrance rate” value (suboptimal NTBC dose of 0.2 mg/kg/day, mice, within the first six months of life)?
Its value is “exceeding 50%”.
